The text below walks through data of ChEMBL document CHEMBL4325912, “Discovery of 2-(1H-imidazo-2-yl)piperazines as a new class of potent and non-cytotoxic inhibitors of Trypanosoma brucei growth in vitro” (Bioorg Med Chem Lett, 2018).

Activity calls are given as the source filed them. No cut-off for these calls is given here. Where only a bound is given, the exact number is not on record here.

T1 sequence (Q13547 whole entry): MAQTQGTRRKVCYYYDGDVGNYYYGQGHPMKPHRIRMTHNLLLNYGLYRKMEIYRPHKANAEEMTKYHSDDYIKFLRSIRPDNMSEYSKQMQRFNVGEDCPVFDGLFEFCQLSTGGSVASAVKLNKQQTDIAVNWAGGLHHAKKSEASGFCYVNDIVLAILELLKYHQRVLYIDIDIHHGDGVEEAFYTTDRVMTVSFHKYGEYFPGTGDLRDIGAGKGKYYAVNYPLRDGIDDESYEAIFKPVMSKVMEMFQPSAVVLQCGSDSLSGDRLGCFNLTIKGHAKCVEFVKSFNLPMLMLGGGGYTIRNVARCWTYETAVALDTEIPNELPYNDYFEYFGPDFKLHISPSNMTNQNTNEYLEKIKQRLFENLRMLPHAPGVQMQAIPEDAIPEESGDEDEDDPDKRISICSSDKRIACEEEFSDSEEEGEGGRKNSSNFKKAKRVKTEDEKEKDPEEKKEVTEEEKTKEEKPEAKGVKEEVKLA
Chain of Histone deacetylase 9 (Homo sapiens) (Q9UKV0 whole entry): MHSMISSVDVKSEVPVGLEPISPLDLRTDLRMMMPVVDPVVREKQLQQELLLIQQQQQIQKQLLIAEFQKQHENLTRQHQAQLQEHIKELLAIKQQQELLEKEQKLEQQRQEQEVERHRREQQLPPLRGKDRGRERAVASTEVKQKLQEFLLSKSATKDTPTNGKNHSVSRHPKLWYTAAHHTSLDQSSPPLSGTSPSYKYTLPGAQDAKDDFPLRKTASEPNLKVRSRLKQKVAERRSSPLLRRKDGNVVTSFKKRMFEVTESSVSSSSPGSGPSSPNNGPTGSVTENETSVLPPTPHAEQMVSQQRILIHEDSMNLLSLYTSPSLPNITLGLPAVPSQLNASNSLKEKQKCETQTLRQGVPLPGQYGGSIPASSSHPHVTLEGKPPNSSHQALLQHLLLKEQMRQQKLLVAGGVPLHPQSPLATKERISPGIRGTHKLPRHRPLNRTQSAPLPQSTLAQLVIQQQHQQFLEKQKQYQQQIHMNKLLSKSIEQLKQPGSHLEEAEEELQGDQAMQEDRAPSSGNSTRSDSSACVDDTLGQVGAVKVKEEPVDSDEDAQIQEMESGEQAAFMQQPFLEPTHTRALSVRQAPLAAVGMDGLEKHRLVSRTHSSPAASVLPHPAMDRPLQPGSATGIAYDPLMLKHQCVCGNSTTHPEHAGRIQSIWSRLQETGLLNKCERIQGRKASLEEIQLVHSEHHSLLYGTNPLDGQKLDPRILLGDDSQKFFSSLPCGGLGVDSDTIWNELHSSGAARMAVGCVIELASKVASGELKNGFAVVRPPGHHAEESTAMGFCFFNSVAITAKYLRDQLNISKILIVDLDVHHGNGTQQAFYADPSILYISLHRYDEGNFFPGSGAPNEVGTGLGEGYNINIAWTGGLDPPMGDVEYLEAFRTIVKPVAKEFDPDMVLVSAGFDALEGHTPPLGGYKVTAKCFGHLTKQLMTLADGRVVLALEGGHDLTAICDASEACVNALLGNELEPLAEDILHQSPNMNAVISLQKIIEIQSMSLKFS
Chain of Histone deacetylase 5 (Homo sapiens) (Q9UQL6 whole entry): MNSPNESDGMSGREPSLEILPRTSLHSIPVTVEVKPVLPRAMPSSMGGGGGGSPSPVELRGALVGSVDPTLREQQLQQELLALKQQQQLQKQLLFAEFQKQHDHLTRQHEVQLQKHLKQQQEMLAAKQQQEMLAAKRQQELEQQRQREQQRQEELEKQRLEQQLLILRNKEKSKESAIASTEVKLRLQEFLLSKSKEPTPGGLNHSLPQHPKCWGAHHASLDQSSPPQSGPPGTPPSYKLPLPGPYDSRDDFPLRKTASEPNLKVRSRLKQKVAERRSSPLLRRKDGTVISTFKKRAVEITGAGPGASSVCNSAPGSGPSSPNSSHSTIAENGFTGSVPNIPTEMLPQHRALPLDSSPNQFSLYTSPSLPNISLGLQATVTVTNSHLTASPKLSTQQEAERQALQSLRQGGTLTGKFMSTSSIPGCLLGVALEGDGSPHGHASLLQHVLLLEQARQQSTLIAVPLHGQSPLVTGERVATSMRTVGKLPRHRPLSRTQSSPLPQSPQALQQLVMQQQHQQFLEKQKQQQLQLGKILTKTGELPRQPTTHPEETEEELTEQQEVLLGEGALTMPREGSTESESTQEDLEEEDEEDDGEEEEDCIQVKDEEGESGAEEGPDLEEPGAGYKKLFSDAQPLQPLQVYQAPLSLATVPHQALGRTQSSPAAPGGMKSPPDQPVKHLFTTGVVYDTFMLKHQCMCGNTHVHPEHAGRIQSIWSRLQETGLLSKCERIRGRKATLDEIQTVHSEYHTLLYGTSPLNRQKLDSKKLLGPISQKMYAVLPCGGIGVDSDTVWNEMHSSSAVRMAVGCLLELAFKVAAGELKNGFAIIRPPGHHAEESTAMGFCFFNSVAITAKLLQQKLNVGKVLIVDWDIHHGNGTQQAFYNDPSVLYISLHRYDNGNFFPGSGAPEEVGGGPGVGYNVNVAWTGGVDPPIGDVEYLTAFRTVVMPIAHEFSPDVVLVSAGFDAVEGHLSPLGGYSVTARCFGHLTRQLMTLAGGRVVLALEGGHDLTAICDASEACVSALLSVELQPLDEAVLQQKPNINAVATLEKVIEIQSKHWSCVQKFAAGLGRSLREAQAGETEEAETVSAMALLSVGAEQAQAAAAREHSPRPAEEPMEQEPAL

Test system in the first data set: not listed separately
Briefly: Cytotoxicity against human HeLa cells assessed as reduction in cell viability after 72 hrs by celltiter glo assay. It counts as cell-based.
Conditions: not given
For orientation: ATP-based viability assays read luminescence as a measure of living cells.
Turning to `CCC(=O)CCCN1CCN(C(=O)Cc2c[nH]c3ccccc23)C(c2ncc(-c3ccc4ccccc4c3)[nH]2)C1` (stereo not given), the CC50 (commonly the concentration giving 50% cytotoxicity) at 72 h is more than 25 µM.
Still for that read-out and setting: next, `CCC(=O)CCCN1CCN(C(=O)Cc2c[nH]c3ccccc23)[C@@H](c2ncc(-c3ccc4ccccc4c3)[nH]2)C1`: more than 32 µM; `CCC(=O)CCCN1CCN(C(=O)Cc2c(C)[nH]c3ccc(OC)cc23)C(c2ncc(-c3ccc4ccccc4c3)[nH]2)C1` (stereo not given): 12.3 µM.
On the same count and under the same terms, the value for `CCC(=O)CCCN1CCN(C(=O)Oc2ccccc2)C(c2ncc(-c3ccc4ccccc4c3)[nH]2)C1` (stereo not given) was 16.6 µM.
With `CCC(=O)CCCN1CCN(C(=O)Nc2ccccc2)C(c2ncc(-c3ccc4ccccc4c3)[nH]2)C1` (stereo not given), the CC50 at 72 h is more than 25 µM.
In the case of `COc1ccc2[nH]c(C)c(CC(=O)N3CCN(CC4CC4)CC3c3ncc(-c4ccc5ccccc5c4)[nH]3)c2c1` (stereo not given), the CC50 at 72 h was more than 25 µM.
On the same count and under the same terms, the value for `CCCCCCN1CCN(C(=O)Cc2c(C)[nH]c3ccc(OC)cc23)C(c2ncc(-c3ccc4ccccc4c3)[nH]2)C1` (stereo not given) was more than 25 µM; that for `CCC(=O)CCCN1CCN(C(=O)c2ccccc2)C(c2ncc(-c3ccc4ccccc4c3)[nH]2)C1` (stereo not given) was more than 32 µM.
Still for that read-out and setting: next, `COc1ccc2[nH]c(C)c(CC(=O)N3CCN(CCCC(C)O)CC3c3ncc(-c4ccc5ccccc5c4)[nH]3)c2c1` (stereo not given): 13.1 µM.
Still for that read-out and setting: next, `CCC(=O)CCCN1CCN(C(C)=O)C(c2ncc(-c3ccc4ccccc4c3)[nH]2)C1` (stereo not given): more than 32 µM.
Turning to `CNC(=O)CCCN1CCN(C(=O)Cc2c(C)[nH]c3ccc(OC)cc23)C(c2ncc(-c3ccc4ccccc4c3)[nH]2)C1` (stereo not given), the CC50 at 72 h is more than 5 µM.

In another data set the test system is Trypanosoma brucei. Briefly: Antitrypanosomal activity against Trypanosoma brucei Lister 427 bloodstream forms in presence of 10% FBS after 24 hrs by celltiter glo assay. The data set is classed as functional, organism-based. The following applies: Lister 427, 24 h.
As to `CCC(=O)CCCN1CCN(C(=O)Cc2c[nH]c3ccccc23)C(c2ncc(-c3ccc4ccccc4c3)[nH]2)C1` (stereo not given), the half-maximal effective concentration (EC50) (usually the concentration at which the effect is half-maximal) turned out to be 0.489 µM.
The same measure, in the same setting: the value for `CCC(=O)CCCN1CCN(C(=O)Cc2c[nH]c3ccccc23)[C@@H](c2ncc(-c3ccc4ccccc4c3)[nH]2)C1` was 4.36 µM.
On to `CCC(=O)CCCN1CCN(C(=O)Cc2c(C)[nH]c3ccc(OC)cc23)C(c2ncc(-c3ccc4ccccc4c3)[nH]2)C1` (stereo not given), for which the EC50 amounted to 0.01 µM.
The same measure, in the same setting: the value for `CCC(=O)CCCN1CCN(C(=O)Oc2ccccc2)C(c2ncc(-c3ccc4ccccc4c3)[nH]2)C1` (stereo not given) was 1.22 µM; that for `CCC(=O)CCCN1CCN(C(=O)Nc2ccccc2)C(c2ncc(-c3ccc4ccccc4c3)[nH]2)C1` (stereo not given) was 1.43 µM.
On the same count and under the same terms, the value for `COc1ccc2[nH]c(C)c(CC(=O)N3CCN(CC4CC4)CC3c3ncc(-c4ccc5ccccc5c4)[nH]3)c2c1` (stereo not given) was 0.016 µM; that for `CCCCCCN1CCN(C(=O)Cc2c(C)[nH]c3ccc(OC)cc23)C(c2ncc(-c3ccc4ccccc4c3)[nH]2)C1` (stereo not given) was 0.079 µM.
On the same count and under the same terms, next, `CCC(=O)CCCN1CCN(C(=O)c2ccccc2)C(c2ncc(-c3ccc4ccccc4c3)[nH]2)C1` (stereo not given): 1.56 µM; `COc1ccc2[nH]c(C)c(CC(=O)N3CCN(CCCC(C)O)CC3c3ncc(-c4ccc5ccccc5c4)[nH]3)c2c1` (stereo not given): 0.013 µM.
As to `CCC(=O)CCCN1CCN(C(C)=O)C(c2ncc(-c3ccc4ccccc4c3)[nH]2)C1` (stereo not given), the EC50 was more than 25 µM.
Consider `CNC(=O)CCCN1CCN(C(=O)Cc2c(C)[nH]c3ccc(OC)cc23)C(c2ncc(-c3ccc4ccccc4c3)[nH]2)C1` (stereo not given), for which the concentration giving a half-maximal response (EC50) was determined as 0.148 µM.

A further data set addresses T1, Histone deacetylase 1 (Homo sapiens, UniProt Q13547). Put plainly: Inhibition of human HDAC1 preincubated for 10 mins followed by BML-KI104 substrate addition and measured after 1 hr by spectrophotometric analysis.
Conditions: not given
For the compound `CCC(=O)CCCN1CCN(C(=O)Cc2c[nH]c3ccccc23)C(c2ncc(-c3ccc4ccccc4c3)[nH]2)C1` (stereo not given), the concentration for half-maximal inhibition (IC50) (commonly the concentration needed to halve the response being measured) was more than 25 µM.

For the next data set, the target named is T2, Histone deacetylase 2 (Homo sapiens, UniProt Q92769). Put plainly: Inhibition of human HDAC2.
T2 sequence (Q92769 whole entry): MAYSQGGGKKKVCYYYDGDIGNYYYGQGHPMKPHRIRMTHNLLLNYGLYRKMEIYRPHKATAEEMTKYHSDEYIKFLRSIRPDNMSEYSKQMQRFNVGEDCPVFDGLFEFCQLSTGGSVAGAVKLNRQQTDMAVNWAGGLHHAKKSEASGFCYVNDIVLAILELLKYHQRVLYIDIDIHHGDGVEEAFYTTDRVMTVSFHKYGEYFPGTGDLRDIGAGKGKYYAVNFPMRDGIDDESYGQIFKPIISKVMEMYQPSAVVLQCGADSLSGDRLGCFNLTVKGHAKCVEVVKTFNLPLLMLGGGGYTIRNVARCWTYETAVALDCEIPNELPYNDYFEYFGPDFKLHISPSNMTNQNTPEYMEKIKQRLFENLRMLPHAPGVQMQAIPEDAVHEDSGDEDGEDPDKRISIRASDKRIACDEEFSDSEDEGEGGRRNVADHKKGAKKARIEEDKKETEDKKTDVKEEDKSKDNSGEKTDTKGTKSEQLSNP
Conditions: not given
`CCC(=O)CCCN1CCN(C(=O)Cc2c[nH]c3ccccc23)C(c2ncc(-c3ccc4ccccc4c3)[nH]2)C1` (stereo not given) yielded a concentration for half-maximal inhibition (IC50) of more than 25 µM.

The target of a further data set is T3, Histone deacetylase 3 (Homo sapiens, UniProt O15379). Put plainly: Inhibition of human HDAC3.
T3 sequence (O15379 whole entry): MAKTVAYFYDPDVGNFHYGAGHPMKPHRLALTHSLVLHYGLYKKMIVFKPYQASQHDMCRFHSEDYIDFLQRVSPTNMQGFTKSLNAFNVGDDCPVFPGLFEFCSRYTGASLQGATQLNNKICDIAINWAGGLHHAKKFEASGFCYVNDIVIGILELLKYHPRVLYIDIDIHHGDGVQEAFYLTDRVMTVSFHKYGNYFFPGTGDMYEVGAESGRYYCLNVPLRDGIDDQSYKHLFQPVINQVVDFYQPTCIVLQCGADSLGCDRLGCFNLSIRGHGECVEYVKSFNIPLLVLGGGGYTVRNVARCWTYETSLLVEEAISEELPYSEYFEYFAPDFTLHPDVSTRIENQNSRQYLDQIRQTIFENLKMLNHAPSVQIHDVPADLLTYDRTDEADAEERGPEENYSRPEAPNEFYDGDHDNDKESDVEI
Conditions: not given
`CCC(=O)CCCN1CCN(C(=O)Cc2c[nH]c3ccccc23)C(c2ncc(-c3ccc4ccccc4c3)[nH]2)C1` (stereo not given) had an IC50 of more than 25 µM.

The next data set addresses Class 1 histone deacetylase (Homo sapiens, UniProt Q13547+O15379+Q92769+Q9BY41). Put plainly: Inhibition of HDAC class 1 in human HeLa cells after 4 hrs by spectrophotometric analysis.
Conditions: not given
The data set is classed as cell-based.
Turning to `CCC(=O)CCCN1CCN(C(=O)Cc2c[nH]c3ccccc23)C(c2ncc(-c3ccc4ccccc4c3)[nH]2)C1` (stereo not given), the IC50 is more than 25 µM.

A further data set concerns the target T1, Histone deacetylase 1. Briefly: Inhibition of human HDAC1 up to 5 uM preincubated for 10 mins followed by BML-KI104 substrate addition and measured after 1 hr by spectrophotometric analysis.
Conditions: not given
In the case of `CCC(=O)CCCN1CCN(C(=O)Cc2c(C)[nH]c3ccc(OC)cc23)C(c2ncc(-c3ccc4ccccc4c3)[nH]2)C1` (stereo not given), the inhibition entry is “inactive”.

The next data set addresses T2, Histone deacetylase 2. Put plainly: Inhibition of human HDAC2 up to 5 uM.
Conditions: not given
Consider `CCC(=O)CCCN1CCN(C(=O)Cc2c(C)[nH]c3ccc(OC)cc23)C(c2ncc(-c3ccc4ccccc4c3)[nH]2)C1` (stereo not given), for which the inhibition entry is “inactive”.

The next data set concerns the target T3, Histone deacetylase 3. Briefly: Inhibition of human HDAC3 up to 5 uM.
Conditions: not given
`CCC(=O)CCCN1CCN(C(=O)Cc2c(C)[nH]c3ccc(OC)cc23)C(c2ncc(-c3ccc4ccccc4c3)[nH]2)C1` (stereo not given): the inhibition result is “inactive”.

In the next data set the target is Histone deacetylase 4 (Homo sapiens) (UniProt P56524). Briefly: Inhibition of human HDAC4 up to 5 uM.
Chain of Histone deacetylase 4 (Homo sapiens) (P56524 whole entry): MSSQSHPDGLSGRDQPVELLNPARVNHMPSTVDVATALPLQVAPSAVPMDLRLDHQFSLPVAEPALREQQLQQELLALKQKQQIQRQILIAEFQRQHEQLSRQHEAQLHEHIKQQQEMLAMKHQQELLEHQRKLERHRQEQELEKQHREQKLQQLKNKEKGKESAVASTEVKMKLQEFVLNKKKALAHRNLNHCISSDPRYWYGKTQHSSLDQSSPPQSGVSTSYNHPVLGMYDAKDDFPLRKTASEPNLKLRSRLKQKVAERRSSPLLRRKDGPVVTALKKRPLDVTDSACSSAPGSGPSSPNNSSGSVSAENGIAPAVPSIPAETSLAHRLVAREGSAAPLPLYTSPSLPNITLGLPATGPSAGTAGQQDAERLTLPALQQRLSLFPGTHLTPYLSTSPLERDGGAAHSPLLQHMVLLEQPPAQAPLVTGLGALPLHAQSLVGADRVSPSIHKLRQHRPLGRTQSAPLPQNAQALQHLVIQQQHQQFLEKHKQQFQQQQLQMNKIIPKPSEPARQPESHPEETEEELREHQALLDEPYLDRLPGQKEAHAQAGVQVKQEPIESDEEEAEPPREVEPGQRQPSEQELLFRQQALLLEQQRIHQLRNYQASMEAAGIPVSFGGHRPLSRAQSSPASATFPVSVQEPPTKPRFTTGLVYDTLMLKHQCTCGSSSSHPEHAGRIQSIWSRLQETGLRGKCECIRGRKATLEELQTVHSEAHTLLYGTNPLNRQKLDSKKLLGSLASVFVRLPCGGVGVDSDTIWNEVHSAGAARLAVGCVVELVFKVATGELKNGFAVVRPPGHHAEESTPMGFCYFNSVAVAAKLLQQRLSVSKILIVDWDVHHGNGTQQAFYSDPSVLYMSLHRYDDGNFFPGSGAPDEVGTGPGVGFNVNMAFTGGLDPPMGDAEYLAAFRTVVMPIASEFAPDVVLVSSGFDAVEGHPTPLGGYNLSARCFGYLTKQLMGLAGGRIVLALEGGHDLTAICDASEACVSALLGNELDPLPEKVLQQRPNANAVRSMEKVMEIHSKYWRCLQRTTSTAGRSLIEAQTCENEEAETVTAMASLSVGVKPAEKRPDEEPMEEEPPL
Conditions: not given
With `CCC(=O)CCCN1CCN(C(=O)Cc2c(C)[nH]c3ccc(OC)cc23)C(c2ncc(-c3ccc4ccccc4c3)[nH]2)C1` (stereo not given), the inhibition entry was “inactive”.

Another data set concerns the target Histone deacetylase 5 (Homo sapiens) (UniProt Q9UQL6). Briefly: Inhibition of human HDAC5 up to 5 uM.
Conditions: not given
As for `CCC(=O)CCCN1CCN(C(=O)Cc2c(C)[nH]c3ccc(OC)cc23)C(c2ncc(-c3ccc4ccccc4c3)[nH]2)C1` (stereo not given), the inhibition entry was “inactive”.

Another data set deals with T4, Protein deacetylase HDAC6 (Homo sapiens) (UniProt Q9UBN7).
T4 sequence (whole entry): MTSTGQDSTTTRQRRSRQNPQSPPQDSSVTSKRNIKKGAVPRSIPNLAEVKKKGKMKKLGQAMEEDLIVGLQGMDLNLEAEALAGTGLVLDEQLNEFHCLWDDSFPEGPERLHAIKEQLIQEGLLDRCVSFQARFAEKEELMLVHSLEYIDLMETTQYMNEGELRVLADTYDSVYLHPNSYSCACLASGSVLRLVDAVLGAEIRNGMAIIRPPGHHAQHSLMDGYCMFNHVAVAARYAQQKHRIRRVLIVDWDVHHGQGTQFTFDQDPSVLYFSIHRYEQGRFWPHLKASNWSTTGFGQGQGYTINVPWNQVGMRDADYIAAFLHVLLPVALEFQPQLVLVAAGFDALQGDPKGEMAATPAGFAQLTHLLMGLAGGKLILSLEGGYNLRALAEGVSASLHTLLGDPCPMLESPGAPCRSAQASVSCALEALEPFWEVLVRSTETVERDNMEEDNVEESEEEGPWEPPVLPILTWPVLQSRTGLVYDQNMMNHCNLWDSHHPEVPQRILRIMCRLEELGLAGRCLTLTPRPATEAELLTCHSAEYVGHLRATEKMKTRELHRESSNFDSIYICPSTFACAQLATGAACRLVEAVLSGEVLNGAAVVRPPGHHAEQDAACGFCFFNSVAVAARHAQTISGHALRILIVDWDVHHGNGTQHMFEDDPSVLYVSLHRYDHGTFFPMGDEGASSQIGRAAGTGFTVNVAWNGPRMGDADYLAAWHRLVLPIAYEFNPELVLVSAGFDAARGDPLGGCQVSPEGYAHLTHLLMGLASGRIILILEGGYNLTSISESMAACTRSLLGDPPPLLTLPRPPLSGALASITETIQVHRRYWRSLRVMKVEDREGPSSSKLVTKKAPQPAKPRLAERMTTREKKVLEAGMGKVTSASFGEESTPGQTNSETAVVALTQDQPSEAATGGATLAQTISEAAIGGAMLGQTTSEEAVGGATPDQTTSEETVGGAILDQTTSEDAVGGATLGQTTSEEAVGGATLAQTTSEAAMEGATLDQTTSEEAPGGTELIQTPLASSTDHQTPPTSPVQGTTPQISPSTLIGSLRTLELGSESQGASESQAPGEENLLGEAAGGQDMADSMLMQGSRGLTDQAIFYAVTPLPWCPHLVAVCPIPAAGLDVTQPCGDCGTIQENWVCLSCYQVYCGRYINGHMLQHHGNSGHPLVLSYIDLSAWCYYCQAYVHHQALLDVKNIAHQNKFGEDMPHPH
Briefly: Inhibition of human HDAC6 up to 5 uM.
Conditions: not given
On to `CCC(=O)CCCN1CCN(C(=O)Cc2c(C)[nH]c3ccc(OC)cc23)C(c2ncc(-c3ccc4ccccc4c3)[nH]2)C1` (stereo not given), for which the inhibition result is “inactive”.

A further data set concerns the target T5, Histone deacetylase 7 (Homo sapiens) (UniProt Q8WUI4).
T5 sequence (whole entry): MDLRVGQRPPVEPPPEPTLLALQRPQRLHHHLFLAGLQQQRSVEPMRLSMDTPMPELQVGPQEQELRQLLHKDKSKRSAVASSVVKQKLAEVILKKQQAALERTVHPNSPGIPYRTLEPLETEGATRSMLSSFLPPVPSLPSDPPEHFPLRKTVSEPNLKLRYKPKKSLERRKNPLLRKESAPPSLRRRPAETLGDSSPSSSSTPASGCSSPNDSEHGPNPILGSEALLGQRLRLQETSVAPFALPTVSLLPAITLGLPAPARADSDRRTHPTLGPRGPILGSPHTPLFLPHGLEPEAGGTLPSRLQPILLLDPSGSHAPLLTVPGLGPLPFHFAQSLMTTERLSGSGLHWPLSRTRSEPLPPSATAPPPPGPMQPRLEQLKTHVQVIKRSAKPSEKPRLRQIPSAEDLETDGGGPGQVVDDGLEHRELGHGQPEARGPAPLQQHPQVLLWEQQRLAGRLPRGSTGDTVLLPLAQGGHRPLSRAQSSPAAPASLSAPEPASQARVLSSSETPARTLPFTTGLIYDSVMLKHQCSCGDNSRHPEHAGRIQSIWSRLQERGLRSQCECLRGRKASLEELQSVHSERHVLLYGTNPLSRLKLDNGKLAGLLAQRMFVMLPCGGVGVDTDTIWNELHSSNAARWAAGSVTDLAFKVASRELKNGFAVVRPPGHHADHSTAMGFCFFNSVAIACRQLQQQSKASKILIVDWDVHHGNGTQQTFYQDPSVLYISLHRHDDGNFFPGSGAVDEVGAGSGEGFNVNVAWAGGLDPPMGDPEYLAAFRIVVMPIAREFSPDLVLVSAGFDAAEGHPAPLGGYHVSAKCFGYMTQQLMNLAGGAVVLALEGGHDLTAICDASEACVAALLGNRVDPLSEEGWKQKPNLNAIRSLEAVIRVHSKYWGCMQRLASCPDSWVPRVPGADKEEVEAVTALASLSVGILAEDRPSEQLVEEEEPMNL
Put plainly: Inhibition of human HDAC7 up to 5 uM.
Conditions: not given
With `CCC(=O)CCCN1CCN(C(=O)Cc2c(C)[nH]c3ccc(OC)cc23)C(c2ncc(-c3ccc4ccccc4c3)[nH]2)C1` (stereo not given), the inhibition entry was “inactive”.

A further data set addresses T6, Histone deacetylase 8 (Homo sapiens) (UniProt Q9BY41).
T6 sequence (whole entry): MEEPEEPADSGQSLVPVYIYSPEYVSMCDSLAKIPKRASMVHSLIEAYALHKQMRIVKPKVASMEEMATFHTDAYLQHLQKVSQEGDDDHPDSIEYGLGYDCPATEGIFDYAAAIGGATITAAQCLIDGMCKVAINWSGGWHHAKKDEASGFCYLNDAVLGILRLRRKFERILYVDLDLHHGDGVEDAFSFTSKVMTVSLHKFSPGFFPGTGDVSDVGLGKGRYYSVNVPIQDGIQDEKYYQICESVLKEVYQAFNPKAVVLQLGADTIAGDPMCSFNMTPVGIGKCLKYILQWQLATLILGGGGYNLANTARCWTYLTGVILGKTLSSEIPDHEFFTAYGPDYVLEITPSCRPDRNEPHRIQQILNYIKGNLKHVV
Put plainly: Inhibition of human HDAC8 up to 5 uM.
Conditions: not given
Turning to `CCC(=O)CCCN1CCN(C(=O)Cc2c(C)[nH]c3ccc(OC)cc23)C(c2ncc(-c3ccc4ccccc4c3)[nH]2)C1` (stereo not given), the inhibition entry is “inactive”.

A further data set concerns the target Histone deacetylase 9 (Homo sapiens) (UniProt Q9UKV0). Briefly: Inhibition of human HDAC9 up to 5 uM.
Conditions: not given
As for `CCC(=O)CCCN1CCN(C(=O)Cc2c(C)[nH]c3ccc(OC)cc23)C(c2ncc(-c3ccc4ccccc4c3)[nH]2)C1` (stereo not given), the inhibition entry is “inactive”.
